Where “and” joins values, the source holds several entries; their conditions need not be identical. Equal values may be shown once. Toxic doses and inconclusive results are not listed. No stated cut-off is given here; in the data, active means T/C of 150% or more; inactive means T/C below 125%.
Test system: L1210 leukemia ip in BDF1 mice, survival T/C
Experiment: NCI In Vivo Anticancer Drug Screen. Data for tumor model L1210 Leukemia (intraperitoneal) in B6D2F1 (BDF1) mice
Conditions: endpoint: mean survival time, higher = longer survival
Method in brief: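 Survival endpoint. Drug-treated group vs vehicle group, expressed as T divided by C. Tumor passaged by transplantation.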

[1] = dose: 100.0 mg/kg/injection, schedule: Q01DX001 (ip), vehicle: saline
[2] = dose: 100.0 mg/kg/injection, schedule: Q01DX005 (ip), vehicle: saline
[3] = dose: 200.0 mg/kg/injection, schedule: Q01DX001 (ip), vehicle: saline
[4] = dose: 400.0 mg/kg/injection, schedule: Q01DX001 (ip), vehicle: saline
[5] = dose: 6.25 mg/kg/injection, schedule: Q01DX009 (ip), vehicle: saline
[6] = dose: 12.5 mg/kg/injection, schedule: Q01DX009 (ip), vehicle: saline
[7] = dose: 25.0 mg/kg/injection, schedule: Q01DX009 (ip), vehicle: saline
[8] = dose: 100.0 mg/kg/injection, schedule: Q04DX002 (ip), vehicle: Klucel (hydroxypropylcellulose) (HPC)
[9] = dose: 200.0 mg/kg/injection, schedule: Q04DX002 (ip), vehicle: Klucel (hydroxypropylcellulose) (HPC)
[10] = dose: 400.0 mg/kg/injection, schedule: Q04DX002 (ip), vehicle: Klucel (hydroxypropylcellulose) (HPC)
[11] = dose: 50.0 mg/kg/injection, schedule: Q04DX003 (ip), vehicle: saline
[12] = dose: 100.0 mg/kg/injection, schedule: Q04DX003 (ip), vehicle: saline
[13] = dose: 200.0 mg/kg/injection, schedule: Q04DX003 (ip), vehicle: saline
[14] = dose: 100.0 mg/kg/injection, schedule: Q04DX003 (ip), vehicle: Klucel (hydroxypropylcellulose) (HPC)
[15] = dose: 200.0 mg/kg/injection, schedule: Q04DX003 (ip), vehicle: Klucel (hydroxypropylcellulose) (HPC)
[16] = dose: 400.0 mg/kg/injection, schedule: Q04DX003 (ip), vehicle: Klucel (hydroxypropylcellulose) (HPC)
[17] = dose: 50.0 mg/kg/injection, schedule: Q01DX009 (ip), vehicle: saline

Measured: T/C

NC1(C(=O)O)CSSC1
inactive: dose: 12.5 mg/kg/injection, schedule: Q01DX005 (ip), vehicle: saline 97 % of control | dose: 25.0 mg/kg/injection, schedule: Q01DX005 (ip), vehicle: saline 99 % of control | dose: 50.0 mg/kg/injection, schedule: Q01DX005 (ip), vehicle: saline 103 % of control and 114 % of control | [1] 106 % of control | [2] 110 % of control | [3] 101 % of control

O=C(Nc1ccccc1)OC1C=CC2CCC1C2 (stereo unspecified)
inactive: [1] 90 % of control | [3] 87 % of control | [4] 87 % of control

CCC(C)[P+](c1ccccc1)(c1ccccc1)c1ccccc1 (stereo unspecified)
inactive: dose: 3.75 mg/kg/injection, schedule: Q01DX001 (ip), vehicle: carboxymethylcellulose (CMC) 118 % of control | dose: 7.0 mg/kg/injection, schedule: Q01DX015 (ip), vehicle: carboxymethylcellulose (CMC) 118 % of control | dose: 7.5 mg/kg/injection, schedule: Q01DX001 (ip), vehicle: carboxymethylcellulose (CMC) 118 % of control | dose: 12.5 mg/kg/injection, schedule: Q04DX002 (ip), vehicle: Klucel (hydroxypropylcellulose) (HPC) 109 % of control | dose: 14.0 mg/kg/injection, schedule: Q01DX015 (ip), vehicle: carboxymethylcellulose (CMC) 120 % of control | dose: 15.0 mg/kg/injection, schedule: Q01DX001 (ip), vehicle: carboxymethylcellulose (CMC) 119 % of control | dose: 25.0 mg/kg/injection, schedule: Q04DX002 (ip), vehicle: Klucel (hydroxypropylcellulose) (HPC) 91 % of control

CC(C)C(=O)OCC(=O)c1ccc(-c2ccccc2)cc1
inactive: [1] 100 % of control | [3] 94 % of control | [4] 111 % of control

C=CCc1cccc(OC)c1OCCN(CC)CC
inactive: [5] 111 % of control | [6] 102 % of control | [7] 100 % of control

COc1cc(/C=N/N=C/c2cc(OC)cc(OC)c2)cc(OC)c1
inactive: [8] 98 % of control | [9] 100 % of control | [10] 107 % of control

C=CC[N+](CC=C)(CC=C)CC[N+](CC=C)(CC=C)CC=C
inactive: dose: 6.25 mg/kg/injection, schedule: Q01DX009 (ip), vehicle: water 109 % of control | dose: 12.5 mg/kg/injection, schedule: Q01DX009 (ip), vehicle: water 111 % of control | dose: 25.0 mg/kg/injection, schedule: Q01DX009 (ip), vehicle: water 96 % of control and 90 % of control | dose: 50.0 mg/kg/injection, schedule: Q01DX009 (ip), vehicle: water 106 % of control and 87 % of control and 89 % of control | dose: 100.0 mg/kg/injection, schedule: Q01DX009 (ip), vehicle: water 100 % of control

CC1CN1P(=O)(Oc1ccccc1)N1CC1C (stereo unspecified)
inactive: dose: 44.0 mg/kg/injection, schedule: Q01DX Z (ip), vehicle: saline 107 % of control | dose: 67.0 mg/kg/injection, schedule: Q01DX Z (ip), vehicle: saline 107 % of control | dose: 100.0 mg/kg/injection, schedule: Q01DX Z (ip), vehicle: saline 102 % of control | dose: 150.0 mg/kg/injection, schedule: Q01DX Z (ip), vehicle: saline 122 % of control

CC(=O)NC1CCCC(C)N1 (stereo unspecified)
inactive: [11] 98 % of control | [1] 110 % of control | [12] 104 % of control | [3] 100 % of control | [13] 96 % of control

O=C(NCCBr)Nc1ccccc1C(F)(F)F
inactive: dose: 100.0 mg/kg/injection, schedule: Q01DX009 (ip), vehicle: Klucel (hydroxypropylcellulose) (HPC) 103 % of control | [14] 112 % of control | dose: 200.0 mg/kg/injection, schedule: Q01DX009 (ip), vehicle: Klucel (hydroxypropylcellulose) (HPC) 105 % of control | [15] 103 % of control | dose: 400.0 mg/kg/injection, schedule: Q01DX009 (ip), vehicle: Klucel (hydroxypropylcellulose) (HPC) 107 % of control | [16] 93 % of control

C1CCC2(CC1)COC1(OC2)OCC2(CCCCC2)CO1
inactive: [8] 97 % of control | [9] 101 % of control | [10] 90 % of control

COC(=O)C(N)CCCCNC(c1ccccc1)(c1ccccc1)c1ccccc1 (stereo unspecified)
inactive: [17] 107 % of control | dose: 100.0 mg/kg/injection, schedule: Q01DX009 (ip), vehicle: saline 86 % of control

CN(C)C1C2(C)CCC(C2)C1(C)C (stereo unspecified)
inactive: dose: 5.0 mg/kg/injection, schedule: Q01DX001 (ip), vehicle: carboxymethylcellulose (CMC) 101 % of control | dose: 10.0 mg/kg/injection, schedule: Q01DX001 (ip), vehicle: carboxymethylcellulose (CMC) 98 % of control | dose: 20.0 mg/kg/injection, schedule: Q01DX001 (ip), vehicle: carboxymethylcellulose (CMC) 98 % of control | dose: 40.0 mg/kg/injection, schedule: Q01DX001 (ip), vehicle: carboxymethylcellulose (CMC) 95 % of control

CS(=O)(=O)Cc1ccc([N+](=O)[O-])cc1
inactive: [14] 103 % of control | [15] 109 % of control | [16] 103 % of control

N#CCCCN1CCOCC1
inactive: [12] 96 % of control | [13] 96 % of control | dose: 400.0 mg/kg/injection, schedule: Q04DX003 (ip), vehicle: saline 104 % of control

Cc1ccc2c(c1)[n+]([O-])c1nc(N)nc(N)c1[n+]2[O-]
inactive: dose: 50.0 mg/kg/injection, schedule: Q04DX002 (ip), vehicle: Klucel (hydroxypropylcellulose) (HPC) 93 % of control | dose: 53.0 mg/kg/injection, schedule: Q01DX001 (ip), vehicle: Klucel (hydroxypropylcellulose) (HPC) 97 % of control | dose: 88.0 mg/kg/injection, schedule: Q01DX001 (ip), vehicle: Klucel (hydroxypropylcellulose) (HPC) 96 % of control | [8] 102 % of control and 104 % of control | dose: 133.0 mg/kg/injection, schedule: Q01DX001 (ip), vehicle: Klucel (hydroxypropylcellulose) (HPC) 91 % of control | dose: 200.0 mg/kg/injection, schedule: Q01DX001 (ip), vehicle: Klucel (hydroxypropylcellulose) (HPC) 97 % of control | dose: 300.0 mg/kg/injection, schedule: Q01DX001 (ip), vehicle: Klucel (hydroxypropylcellulose) (HPC) 104 % of control | [10] 98 % of control and 119 % of control

CCCCCCCCCCCCCCCCCCNC(=O)N(c1ccccc1)C1CCCCC1
inactive: [8] 101 % of control | [9] 93 % of control | [10] 87 % of control

C[N+](C)(C)CCOC(=O)c1ccccc1CCl
inactive: dose: 100.0 mg/kg/injection, schedule: Q04DX002 (ip), vehicle: saline with Tween-80 98 % of control | dose: 200.0 mg/kg/injection, schedule: Q04DX002 (ip), vehicle: saline with Tween-80 102 % of control

CCSC1C(O)C(C(O)CO)OC1n1ccc(=O)[nH]c1=O (stereo unspecified)
inactive: [2] 96 % of control | dose: 200.0 mg/kg/injection, schedule: Q01DX005 (ip), vehicle: saline 98 % of control

CCCC1(C)NC(=O)NC1=O (stereo unspecified)
inactive: dose: 100.0 mg/kg/injection, schedule: Q01DX009 (ip), vehicle: saline with Tween-80 97 % of control | dose: 100.0 mg/kg/injection, schedule: Q04DX003 (ip), vehicle: saline with Tween-80 110 % of control | dose: 200.0 mg/kg/injection, schedule: Q01DX009 (ip), vehicle: saline with Tween-80 98 % of control | dose: 200.0 mg/kg/injection, schedule: Q04DX003 (ip), vehicle: saline with Tween-80 104 % of control | dose: 400.0 mg/kg/injection, schedule: Q01DX009 (ip), vehicle: saline with Tween-80 93 % of control | dose: 400.0 mg/kg/injection, schedule: Q04DX003 (ip), vehicle: saline with Tween-80 102 % of control

CN(C)CCC=C1c2ccccc2C=Cc2ccccc21
inactive: dose: 3.12 mg/kg/injection, schedule: Q01DX009 (ip), vehicle: saline 98 % of control | [5] 93 % of control and 104 % of control | [6] 107 % of control and 96 % of control | [7] 98 % of control and 101 % of control | dose: 25.0 mg/kg/injection, schedule: Q04DX003 (ip), vehicle: saline 112 % of control and 103 % of control | [17] 109 % of control | [11] 98 % of control and 105 % of control

C/C=C/C=C/C(=O)c1cc(C#N)c(OC)cc1O
inactive: dose: 100.0 mg/kg/injection, schedule: Q01DX001 (ip), vehicle: saline with Tween-80 93 % of control | dose: 200.0 mg/kg/injection, schedule: Q01DX001 (ip), vehicle: saline with Tween-80 90 % of control | dose: 400.0 mg/kg/injection, schedule: Q01DX001 (ip), vehicle: saline with Tween-80 93 % of control
